From the supplement of paper PMC4862054

Key:
CAL-51 [1] = details: 72 h
Protocol: (§1)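 Drug sensitivity and resistance testing (DSRT) of breast cancer cell lines in 384-well plates, 5 concentrations in 10-fold dilutions over a compound-specific 10,000-fold range. After 72 h, cytotoxicity was read by CellTox Green fluorescence and viability by CellTiter-Glo luminescence (multiplexed), normalised to DMSO and benzethonium chloride controls. EC50 is the inflection point of the fitted dose-response curve (bottom asymptote free, so it can be relative for partial curves) and is censored at the highest tested concentration. Rows with DSS 0 (no meaningful response) were excluded.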

MDA-MB-231 [2] = details: 72 h
Protocol: as §1

CAL-85-1 [3] = experiment: normalised viability (% of control), CellTiter-Blue; higher = more viable cells (about 100 = DMSO control); details: incubation time: 72 h
Method in brief: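 Each entry is normalised viability at a single listed concentration within a series. It comes from breast cancer cell lines incubated 72 h with compound in 384-well plates, then measured with CellTiter-Blue fluorescence at 560/590 nm. Every plate was normalised between vehicle (100) and a positive kill control (0).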

BT-474 = experiment: normalised response (% of control), CellTiter-Glo; higher = more viable cells (100 = DMSO, 0 = benzethonium chloride kill control); details: incubation time: 72 h
Method in brief: (§2)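 Compound was dispensed into 384-well plates at 5 concentrations in 10-fold steps spanning a 10,000-fold range specific to that compound. Breast cancer cell lines were added as 20 µl suspension and left for 72 h before CellTox Green fluorescence (485/520 nm) and then CellTiter-Glo luminescence, read after 10 min at room temperature. Each reported value is the normalised signal at one concentration, with 0.1 % DMSO set at 100 and a positive kill control at 0 on each plate.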

BT-549 = experiment: as above; details: incubation time: 72 h
Method in brief: as §2

CAL-120 = experiment: as above; details: incubation time: 72 h
Method in brief: as §2

CAL-148 = experiment: as above; details: incubation time: 72 h
Method in brief: as §2

CAL-51 [4] = experiment: as above; details: incubation time: 72 h
Method in brief: as §2

CAL-85-1 [5] = experiment: as above; details: incubation time: 72 h
Method in brief: as §2

DU-4475 = experiment: as above; details: incubation time: 72 h
Method in brief: as §2

HCC1143 = experiment: as above; details: incubation time: 72 h
Method in brief: as §2

HCC1599 = experiment: as above; details: incubation time: 72 h
Method in brief: as §2

HCC1937 = experiment: as above; details: incubation time: 72 h
Method in brief: as §2

HDQ-P1 = experiment: as above; details: incubation time: 72 h
Method in brief: as §2

Hs578T = experiment: as above; details: incubation time: 72 h
Method in brief: as §2

MCF-10A = experiment: as above; details: incubation time: 72 h
Method in brief: as §2

MDA-MB-231 [6] = experiment: as above; details: incubation time: 72 h
Method in brief: as §2

MDA-MB-436 = experiment: as above; details: incubation time: 72 h
Method in brief: as §2

MDA-MB-453 = experiment: as above; details: incubation time: 72 h
Method in brief: as §2

MDA-MB-468 = experiment: as above; details: incubation time: 72 h
Method in brief: as §2

MFM-223 = experiment: as above; details: incubation time: 72 h
Method in brief: as §2

SK-BR-3 = experiment: as above; details: incubation time: 72 h
Method in brief: as §2

For `CCn1c(-c2nonc2N)nc2cnc(Oc3cccc(NC(=O)c4ccc(OCCN5CCOCC5)cc4)c3)cc21`, the “EC50, CellTox Green” value (CAL-51 [1]) was 48.1 nM and the “EC50, CellTox Green” value (MDA-MB-231 [2]) was 2950 nM.

With `COc1cc(O)c2c(c1)/C=C/C[C@H](O)[C@H](O)C(=O)/C=C\C[C@H](C)OC2=O` [(5Z)-7-Oxozeaenol] the “EC50, CellTox Green” value (CAL-51 [1]) was 9350 nM and the “EC50, CellTox Green” value (MDA-MB-231 [2]) was 864 nM.

With `COc1cc(OC2CCN(C)CC2)ccc1Nc1ncc2c(n1)n(C1CCCC1)c(=O)n2C` [AZ 3146] the “EC50, CellTox Green” value (CAL-51 [1]) was 768 nM.

`O=C(/C=C/c1cccc(S(=O)(=O)Nc2ccccc2)c1)NO` [Belinostat] was tested, and the “EC50, CellTox Green” value (CAL-51 [1]) was 680 nM and the “EC50, CellTox Green” value (MDA-MB-231 [2]) was 261 nM.

In the case of `Nc1cc(C(F)(F)F)c(-c2cc(N3CCOCC3)nc(N3CCOCC3)n2)cn1` [Buparlisib], the “EC50, CellTox Green” value (CAL-51 [1]) is reported as 2900 nM and the “EC50, CellTox Green” value (MDA-MB-231 [2]) is reported as 3580 nM.

With `CCOC(=O)CCNc1cc(N2CCc3ccccc3CC2)nc(-c2ccccn2)n1` [GSK-J4] the “EC50, CellTox Green” value (CAL-51 [1]) was 9960 nM and the “EC50, CellTox Green” value (MDA-MB-231 [2]) was 11300 nM.

For `Cc1cc(Nc2cc(CN3CCOCC3)c3nc(C)c(Cc4ccc(Cl)cc4F)n3n2)n[nH]1` [Gandotinib], the “EC50, CellTox Green” value (CAL-51 [1]) was 1390 nM.

With `O=C(Nc1ccncc1)C(=O)c1cn(Cc2ccc(Cl)cc2)c2ccccc12` [Indibulin] the “EC50, CellTox Green” value (CAL-51 [1]) was 860 nM and the “EC50, CellTox Green” value (MDA-MB-231 [2]) was 472 nM.

In the case of `CCc1c2c(nc3ccc(OC(=O)N4CCC(N5CCCCC5)CC4)cc13)-c1cc3c(c(=O)n1C2)COC(=O)[C@]3(O)CC` [Irinotecan], the “EC50, CellTox Green” value (CAL-51 [1]) is reported as 1220 nM.

With `Cc1ccc(NC(=O)c2ccc(CN3CCN(C)CC3)cc2)cc1Nc1nc(-c2cccnc2)cs1` [Masitinib] the “EC50, CellTox Green” value (MDA-MB-231 [2]) was 3220 nM.

In the case of `COC(=O)c1ccc2c(c1)NC(=O)/C2=C(\Nc1ccc(N(C)C(=O)CN2CCN(C)CC2)cc1)c1ccccc1` [Nintedanib], the “EC50, CellTox Green” value (CAL-51 [1]) is reported as 2950 nM and the “EC50, CellTox Green” value (MDA-MB-231 [2]) is reported as 2190 nM.

For `Cc1[nH]c2ccccc2c1CCNCc1ccc(/C=C/C(=O)NO)cc1` [Panobinostat], the “EC50, CellTox Green” value (CAL-51 [1]) was 30.8 nM and the “EC50, CellTox Green” value (MDA-MB-231 [2]) was 21.6 nM.

`CO[C@H]1C[C@@H]2CC[C@@H](C)[C@@](O)(O2)C(=O)C(=O)N2CCCC[C@H]2C(=O)O[C@H]([C@H](C)C[C@@H]2CC[C@@H](OP(C)(C)=O)[C@H](OC)C2)CC(=O)[C@H](C)/C=C(\C)[C@@H](O)[C@@H](OC)C(=O)[C@H](C)C[C@H](C)/C=C/C=C/C=C/1C` [Ridaforolimus] (100 nM) showed a normalised viability (CAL-85-1 [3]) of 52.5%, a normalised response (BT-474) of 81.5% and a normalised response (BT-549) of 54.8%. For the same molecule, the normalised response (CAL-120) was 64.8%, the normalised response (CAL-148) was 58.8% and the normalised response (CAL-51 [4]) was 62%. The normalised response (CAL-85-1 [5]) was 66.8%, the normalised response (DU-4475) was 72.8% and the normalised response (HCC1143) was 67.1%. It also gave a normalised response (HCC1599) of 108%, a normalised response (HCC1937) of 69.3% and a normalised response (HDQ-P1) of 79%. The normalised response (Hs578T) was 69.6%, the normalised response (MCF-10A) was 85.1% and the normalised response (MDA-MB-231 [6]) was 88.4%. It also gave a normalised response (MDA-MB-436) of 82.5%, a normalised response (MDA-MB-453) of 62.8% and a normalised response (MDA-MB-468) of 56.7%. It also gave a normalised response (MFM-223) of 68.3% and a normalised response (SK-BR-3) of 56.9%.

With `c1ccc2c(CCNc3ccc(Nc4ccncc4)cc3)c[nH]c2c1` [Serdemetan] the “EC50, CellTox Green” value (CAL-51 [1]) was 285 nM and the “EC50, CellTox Green” value (MDA-MB-231 [2]) was 8800 nM.

For `CC(C)C[C@@H](C(=O)N[C@H](C(=O)OC1CCCC1)c1ccccc1)[C@H](O)C(=O)NO` [Tosedostat], the “EC50, CellTox Green” value (CAL-51 [1]) was 35.5 nM and the “EC50, CellTox Green” value (MDA-MB-231 [2]) was 52.9 nM.

With `COc1cc2c(NC3CCN(C(C)C)CC3)nc(N3CCC(F)(F)CC3)nc2cc1OCCCN1CCCC1` [UNC0642] the “EC50, CellTox Green” value (MDA-MB-231 [2]) was 2090 nM.

For `COc1cc2/c(=N/c3ccc(Br)cc3F)nc[nH]c2cc1OCC1CCN(C)CC1` [Vandetanib] (1000 nM), the normalised viability (CAL-85-1 [3]) was 71%, the normalised response (BT-474) was 79.3% and the normalised response (BT-549) was 95%. The normalised response (CAL-120) was 89.6%, the normalised response (CAL-148) was 78.9% and the normalised response (CAL-51 [4]) was 99.1%. The normalised response (CAL-85-1 [5]) was 58.9%, the normalised response (DU-4475) was 87.8% and the normalised response (HCC1143) was 86.4%. It also gave a normalised response (HCC1599) of 76.2%, a normalised response (HCC1937) of 78% and a normalised response (HDQ-P1) of 56.3%. The normalised response (Hs578T) was 91.7%, the normalised response (MCF-10A) was 27.1% and the normalised response (MDA-MB-231 [6]) was 79.1%. For the same molecule, the normalised response (MDA-MB-436) was 86%, the normalised response (MDA-MB-453) was 74.5% and the normalised response (MDA-MB-468) was 69.9%. It also gave a normalised response (MFM-223) of 64.9% and a normalised response (SK-BR-3) of 74.3%.

In the case of `COCC[n+]1c2c(n(Cc3cnccn3)c1C)C(=O)c1ccccc1C2=O` [YM155], the “EC50, CellTox Green” value (CAL-51 [1]) is reported as 30.2 nM and the “EC50, CellTox Green” value (MDA-MB-231 [2]) is reported as 14.4 nM.
